Test results published in patent publication US20080096967A1, “Formulations for Injection of Catecholic Butanes, Including Ndga Compounds, Into Animals” (priority 2005, published 2008).

Columns and labels:
[1] = Solubility of M4N in water-soluble organic solvents (Table 20, visual inspection); assay type: physicochemical
Method: A 100 mL solution of M4N at a concentration of about 25 mg/mL in PEG 300 was made as follows. About 100 mL of PEG 300 were added to a glass beaker containing a stir bar. The beaker was placed on a magnetic plate and the stir bar was set to stir at medium speed. About 2.5 g of M4N were slowly added to the PEG 300 in the center of the beaker with the aid of a spatula to prevent M4N from sticking to the beaker wall. The M4N/PEG 300 mixture was stirred for 24 hr or until all M4N had dissolved or was uniformly suspended without any clumps being present. The M4N/PEG 300 mixture was optionally heated at about 60° C. for about 30 min. (or longer if a larger volume of solution was desired, for example, 1 hr at 60° C. for 500 mL of the M4N/PEG 300 mixture), or longer as needed to ensure complete dissolution of M4N. […] If crystals formed, the M4N/PEG 300 solution could be heated again at 60° C. for about 1 hr, with stirring, on a hot magnetic plate until all M4N was dissolved back in solution. The final M4N/PEG 300 solution was stored at room temperature and was kept protected from light. This process may be scaled up or down to obtain the requisite volume or concentration of M4N. Formulations containing M4N in other PEGs may be similarly made, such as, for example, by substituting PEG 300 in the process described above with PEG 400 or PEG 400 monolaurate.
This process may be scaled up or down to obtain the requisite volume or concentration of M4N and the heating temperature may be increased or decreased to achieve dissolution of M4N. Formulations containing M4N in other water-insoluble lipids combined with non-ionic surfactants, ionic surfactants or water-soluble organic solvents may be similarly made, such as, for example, by substituting sesame oil or Tween® 20 in the process described above with corn oil, olive oil, soybean oil, peppermint oil, Tween® 80, d-alpha-tocopheryl polyethylene glycol 1000 succinate (TPGS), lecithin, PEG 300, PEG 400, PEG 400 monolaurate, glycerol, polyvinylpyrrolidone (“PVP”), propylene glycol (“PG”), or other solubilizing agents, and combinations thereof.

[2] = 40 mg/mL M4N/PEG 300 stability: visual appearance; assay type: physicochemical
Method: The stability of 40 mg/mL M4N dissolved in 100% PEG 300 was evaluated up to 24 hours incubation at 30° C., 45° C. and 60° C. A stock 40 mg/mL M4N in PEG 300 was prepared at 60° C., following the procedure set forth in Example 17. Subsequently, aliquots were removed and incubated at the appropriate temperature. Samples were rotated at 450 rpm during the entire course of incubation. Visual observations and RP-HPLC data were collected throughout. […] The formation of crystals coincided with a loss of soluble M4N (Table 30). The 40 mg/mL M4N/PEG 300 samples incubated at 45° C. and 60° C. were stable after 24 hours incubation as assessed by visual observations and RP-HPLC analysis (Tables 29 and 30).

COc1ccc(C[C@@H](C)[C@@H](C)Cc2ccc(OC)c(OC)c2)cc1OC [Formulation M4N, meso-1,4-bis(3,4-dimethoxyphenyl)-2,3-dimethylbutane]
Dissolution After Heating ([1]; 40% Propylene Glycol, 10% Ethanol, M4N 10 mg/mL, temperature not given): N | Stability Time at Room Temperature ([1]; Ethanol 100%, M4N 1 mg/mL): >3 days | Dissolution After Heating ([1]; Ethanol 100%, M4N 10 mg/mL, heating at 37° C.): N at 37 °C | Dissolution After Heating ([1]; Glycerol 100%, M4N 1 mg/mL, heating at 70° C.): Y at 70 °C | Dissolution After Heating ([1]; Glycerol 100%, M4N 10 mg/mL, heating at 70° C.): Y at 70 °C | Dissolution After Heating ([1]; Glycerol 100%, M4N 20 mg/mL, heating at 70° C.): Y at 70 °C | Dissolution After Heating ([1]; PEG 300 33%, M4N 10 mg/mL, heating at 50° C.): N at 50 °C | Stability Time at Room Temperature ([1]; PEG 300 100%, M4N 25 mg/mL): <7 days | Dissolution After Heating ([1]; PEG 300 100%, M4N 25 mg/mL, heating at 50° C.): Y at 50 °C | Stability Time at Room Temperature ([1]; PEG 300 100%, M4N 30 mg/mL): <3 days | Dissolution After Heating ([1]; PEG 300 100%, M4N 30 mg/mL, heating at 50° C.): Y at 50 °C | Stability Time at Room Temperature ([1]; PEG 300 100%, M4N 40 mg/mL): <1 days | Dissolution After Heating ([1]; PEG 300 100%, M4N 40 mg/mL, heating at 50° C.): Y at 50 °C | Stability Time at Room Temperature ([1]; PEG 300 100%, M4N 50 mg/mL): <1 days | Dissolution After Heating ([1]; PEG 300 100%, M4N 50 mg/mL, heating at 60° C.): Y at 60 °C | Dissolution After Heating ([1]; PEG 300 100%, M4N 100 mg/mL, heating at 60° C.): Y at 60 °C | Dissolution After Heating ([1]; PEG 400 5%, M4N 10 mg/mL, heating at 50° C.): N at 50 °C | Stability Time at Room Temperature ([1]; PEG 400 100%, M4N 25 mg/mL): <7 days | Dissolution After Heating ([1]; PEG 400 100%, M4N 25 mg/mL, heating at 50° C.): Y at 50 °C | Stability Time at Room Temperature ([1]; PEG 400 100%, M4N 30 mg/mL): <3 days | Dissolution After Heating ([1]; PEG 400 100%, M4N 30 mg/mL, heating at 50° C.): Y at 50 °C | Stability Time at Room Temperature ([1]; PEG 400 100%, M4N 40 mg/mL): <1 days | Dissolution After Heating ([1]; PEG 400 100%, M4N 40 mg/mL, heating at 50° C.): Y at 50 °C | Stability Time at Room Temperature ([1]; PEG 400 100%, M4N 50 mg/mL): <1 days | Dissolution After Heating ([1]; PEG 400 100%, M4N 50 mg/mL, heating at 60° C.): Y at 60 °C | Dissolution After Heating ([1]; PEG 400 100%, M4N 100 mg/mL, heating at 60° C.): Y at 60 °C | Dissolution After Heating ([1]; PEG 400 monolaurate 100%, M4N 20 mg/mL, heating at 50° C.): Y at 50 °C | Dissolution After Heating ([1]; PEG 400 monolaurate 100%, M4N 50 mg/mL, heating at 50° C.): Y at 50 °C | Dissolution After Heating ([1]; PVP 15%, M4N 1 mg/mL, heating at 90° C.): N at 90 °C | Dissolution After Heating ([1]; PVP 15%, M4N 10 mg/mL, heating at 90° C.): N at 90 °C | Stability Time at Room Temperature ([1]; Propylene Glycol 100%, M4N 1 mg/mL): <1 days | Dissolution After Heating ([1]; Propylene Glycol 100%, M4N 1 mg/mL, heating at 55° C.): Y at 55 °C | Stability Time at Room Temperature ([1]; Propylene Glycol 100%, M4N 10 mg/mL): <1 days | Dissolution After Heating ([1]; Propylene Glycol 100%, M4N 10 mg/mL, heating at 55° C.): Y at 55 °C | Stability Time at Room Temperature ([1]; Propylene Glycol 100%, M4N 20 mg/mL): <1 days | Dissolution After Heating ([1]; Propylene Glycol 100%, M4N 20 mg/mL, heating at 55° C.): Y at 55 °C | visual observation ([2]; 40 mg/mL M4N/PEG 300, 6 hours at 30° C.): tiny crystals were observed | stability by visual observations and RP-HPLC ([2]; 40 mg/mL M4N/PEG 300, 24 hours at 45° C. and 60° C.): stable
